Results reported in paper PMC12049818, “Identification of NUV-244 as a PNPLA3 I148M degrading small molecule” (iScience, 2025).

Molecular target: T1, PNPLA3 WT (Homo sapiens, UniProt Q9NST1)
T1 construct: Full-length wild-type PNPLA3 (Q9NST1), mutant PNPLA3 (I148M), and PNPLA2 (Q96AD5) were cloned into the pVL1393 vector; Flag (N); made in house; host or cells: SF9 insect cells (baculovirus, pVL1393)
T1 sequence (Q9NST1 1-481): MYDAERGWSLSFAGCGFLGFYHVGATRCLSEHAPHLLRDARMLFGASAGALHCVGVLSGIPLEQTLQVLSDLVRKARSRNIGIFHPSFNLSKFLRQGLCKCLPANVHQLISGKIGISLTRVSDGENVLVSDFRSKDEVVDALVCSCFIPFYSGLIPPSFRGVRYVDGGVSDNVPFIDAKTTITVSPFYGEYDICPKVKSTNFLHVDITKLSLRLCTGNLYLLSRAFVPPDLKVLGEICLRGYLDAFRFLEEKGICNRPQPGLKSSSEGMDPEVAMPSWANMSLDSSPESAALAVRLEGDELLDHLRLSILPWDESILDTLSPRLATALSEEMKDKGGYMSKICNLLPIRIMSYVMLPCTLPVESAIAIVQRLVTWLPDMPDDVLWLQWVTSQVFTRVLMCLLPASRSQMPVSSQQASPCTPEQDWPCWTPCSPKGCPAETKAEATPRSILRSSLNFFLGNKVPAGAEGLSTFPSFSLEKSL
Experiment: nanoDSF thermal shift, PNPLA3 WT protein
Assay type: binding
Details: ligand 25 μM
Description: To investigate the mode of action of NUV-244, we evaluated its direct binding to the PNPLA3 I148M protein using nano differential scanning fluorimetry (nanoDSF). In this assay, compounds that bind to a target protein can lead to thermal stabilization, preventing protein denaturation, which is reflected in a shift of the protein melting curve.
Full-length wild-type PNPLA3 (Q9NST1), mutant PNPLA3 (I148M), and PNPLA2 (Q96AD5) were cloned into the pVL1393 vector with an N-terminal Flag-Tag. Proteins were expressed in SF9 cells infected at a multiplicity of infection (MOI) of 1 for 72 hours. Protein purification was performed using a two-step process. The first step involved affinity purification using M2 anti-Flag agarose beads. This was followed by gel filtration chromatography using a Superdex 200 column. Thermal melting experiments were carried out using a Prometheus NT.48 instrument (NanoTemper Technologies). Proteins were prepared in 20 mM Tris-HCl pH 7.4, 100 mM NaCl, 5 % Glycerol, 2 mM DTT and 0.2 mg/mL was used as a final concentration in 50 μL volume. For binding experiments, ligands were added to the mixture at a final concentration of 25 μM, DMSO was used as control. […] The intrinsic protein fluorescence at 330 and 350 nm was recorded. Data were analysed using Prometheus NT.48 software. Thermal shifts (ΔTm) were calculated, and Z-scores greater than 6 indicated robust stabilization. […]

- ΔTm PNPLA3 WT: 7.02 °C
Structure (SMILES): Cc1cccc(Cc2nc(C)c(C(=O)Nc3cc(O)ccc3Cl)s2)c1 [NUV-244]
